Assay results from patent publication US5191079A, “Quinolinecarboxylic acid derivatives” (priority 1990, dated 1993).
Values after ≈ are worked out from the molar mass of the structure shown. Counter-ions that a name gives are not always drawn. Like-named read-outs stand apart in the source and are kept apart here.

Assays:
Type in all cases: cell-based
[1] = test system: clinically isolated Enterococcus faecalis; test: In vitro antibacterial activity against clinical isolates, Experiment 2
Method in brief: (§1)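 Stock: compound diluted in sterile distilled water to 1000 μg/ml. Preculture: sensitivity test broth. MIC read-out: sensitivity test agar medium. Strains: clinical isolates, Nov. 1988–Jun. 1989.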

[2] = test system: clinically isolated Enterococcus faecium; test: as above; conditions: for MIC / MIC90: 25 clinical strains E. faecium; for MIC90: 90% of strains, read-out: MIC90
Method in brief: as §1

[3] = test system: clinically isolated Staphylococcus aureus; test: as above; conditions: 25 clinical strains S. aureus incl. 16 methicillin resistant; for MIC50: 50% of strains, read-out: MIC50; for MIC90: 90% of strains, read-out: MIC90
Method in brief: as §1

[4] = test system: clinically isolated Staphylococcus epidermidis; test: as above; conditions: for MIC50 / MIC90 / MIC: Staphylococcus epidermidis; for MIC50: 50% of strains, read-out: MIC50
Method in brief: as §1

[5] = test system: Staphylococcus epidermidis IAM 1296; test: MIC, Experiment 1; conditions: IAM1296, S. epidermidis IAM 1296, Gram +, read-out: Min. inhib. concentr. (MIC)
Description: The compounds of the present invention ([…] and Q) were each dissolved in dimethylsulfoxide to prepare a solution of 5000 μg/ml in concentration. The compounds of the present invention (I, J and K) and the known compound (Y) were each dissolved in sterilized distilled water to prepare a solution of 5000 μg/ml in concentration. […] The test was carried out by a method as appointed by Japan Society of Chemotherapy [cf. Chemotherapy, 29, 76-79 (1981), TOKYO]. As to Streptococcus pneumoniae and Streptococcus pyogenes, Brain heart infusion broth (manufactured by DIFCO) was used as the medium for the preculture thereof, and a heart infusion agar medium containing 5% defibrinated horse blood (manufactured by Nissui Seiyaku K. K., Japan) was used as the medium for the measurement of minimum inhibitory concentration (MIC). As to other microorganisms, a sensitivity test broth (manufactured by Nissui Seiyaku K. K.) was used as the medium for the preculture thereof, and a sensitivity test agar medium (manufactured by Nissui Seiyaku K. K.) was used as the medium for the measurement of MIC.

[6] = test system: Bacillus subtilis ATCC 6633; test: MIC, Experiment 1; conditions: ATCC6633, B. subtilis ATCC 6633, Gram +, read-out: Min. inhib. concentr. (MIC)
Method in brief: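 Japan Society of Chemotherapy MIC protocol. Pneumococci: BHI broth preculture, heart infusion agar plus 5% defibrinated horse blood. Staphylococcus/Bacillus: sensitivity test broth preculture, sensitivity test agar.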

[7] = test system: Staphylococcus aureus Terajima (IID 670); test: MIC, Experiment 1; conditions: IID670, S. aureus Terajima (IID 670), Gram +, read-out: Min. inhib. concentr. (MIC)
Method in brief: (§2)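 Stock solutions (5000 μg/ml, in DMSO or water) were diluted to 1000 μg/ml working standards. MICs were measured per the Japan Society of Chemotherapy procedure, with media matched to each organism: blood-supplemented heart infusion agar for S. pneumoniae and sensitivity test agar for the remaining strains.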

[8] = test system: Staphylococcus aureus IID 803; test: MIC, Experiment 1; conditions: IID803, S. aureus IID 803, Gram +, read-out: Min. inhib. concentr. (MIC)
Method in brief: as §2

[9] = test system: Proteus mirabilis IFO 3849; test: MIC, Experiment 1; conditions: IFO3849, P. mirabilis IFO 3849, Gram -, read-out: Min. inhib. concentr. (MIC)
Method in brief: as §2

[10] = test system: Streptococcus pyogenes Sv; test: MIC, Experiment 1; conditions: S. pyogenes Sv, Gram +, agar with 5% defibrinated horse blood, read-out: Min. inhib. concentr. (MIC)
Method in brief: (§3)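 Minimum inhibitory concentrations come from the Japan Society of Chemotherapy procedure. For streptococci, plates were heart infusion agar with 5% defibrinated horse blood after brain heart infusion broth preculture. Non-streptococcal strains were grown in sensitivity test broth and plated on sensitivity test agar.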

[11] = test system: Pseudomonas aeruginosa NCTC 10490; test: MIC, Experiment 1; conditions: NCTC10490, P. aeruginosa NCTC 10490, Gram -, read-out: Min. inhib. concentr. (MIC)
Method in brief: as §2

[12] = test system: Staphylococcus aureus Cowan I (IID 975); test: MIC, Experiment 1; conditions: IID975, S. aureus Cowan I (IID 975), Gram +, read-out: Min. inhib. concentr. (MIC)
Method in brief: as §2

[13] = test system: Enterobacter cloacae 963; test: MIC, Experiment 1; conditions: E. cloacae 963, Gram -, read-out: Min. inhib. concentr. (MIC)
Method in brief: as §2

[14] = test system: Streptococcus pyogenes Cook; test: MIC, Experiment 1; conditions: S. pyogenes Cook, Gram +, agar with 5% defibrinated horse blood, read-out: Min. inhib. concentr. (MIC)
Method in brief: as §3

[15] = test system: Staphylococcus aureus MS-353; test: MIC, Experiment 1; conditions: MS353, S. aureus MS-353, Gram +, read-out: Min. inhib. concentr. (MIC)
Method in brief: as §2

[16] = test system: Streptococcus pyogenes Su; test: MIC, Experiment 1; conditions: S. pyogenes Su, Gram +, agar with 5% defibrinated horse blood, read-out: Min. inhib. concentr. (MIC)
Method in brief: as §3

[17] = test system: Escherichia coli NIHJ JC-2; test: MIC, Experiment 1; conditions: NIHJJC2, E. coli NIHJ JC-2, Gram -, read-out: Min. inhib. concentr. (MIC)
Method in brief: as §2

[18] = test system: Streptococcus pneumoniae IID 552; test: MIC, Experiment 1; conditions: IID552, S. pneumoniae IID 552, Gram +, agar with 5% defibrinated horse blood, read-out: Min. inhib. concentr. (MIC)
Method in brief: as §2

[19] = test system: Bacillus cereus IAM 1029; test: MIC, Experiment 1; conditions: IAM1029, B. cereus IAM 1029, Gram +, read-out: Min. inhib. concentr. (MIC)
Method in brief: as §2

[20] = 25 clinical strains E. faecalis
[21] = 25 clinical strains S. epidermidis
[22] = 25 clinical strains S. epidermidis, 90% of strains, read-out: MIC90

Compound	MIC [1, 20] [µg/mL]	MIC50 [2] [µg/mL]	MIC [2] [µg/mL]	MIC90 [2] [µg/mL]	MIC [3] [µg/mL]	MIC50 [3] [µg/mL]	MIC90 [3] [µg/mL]	MIC50 [4, 21] [µg/mL]	MIC [5] [µg/mL]	MIC [6] [µg/mL]	MIC [7] [µg/mL]	MIC [8] [µg/mL]	MIC [9] [µg/mL]	MIC [10] [µg/mL]	MIC [11] [µg/mL]	MIC [12] [µg/mL]	MIC [13] [µg/mL]	MIC [14] [µg/mL]	MIC [15] [µg/mL]	MIC [16] [µg/mL]	also measured
CN1CCN(c2c(F)cc3c(=O)c(C(=O)O)c4scc5n4c3c2OC5)CC1 [Compound (Y), 9,1-Epoxymethano-7-fluoro-8-(4-methyl-1-piperazinyl)-5-oxo-5H-thiazolo[3,2-a]quinoline-4-carboxylic acid hydrochloride, reference compound]	0.2 to 6.25	3.13	0.39 to 12.5	6.52	0.05 to 12.5	0.2	12.5	0.1	0.39	0.1	0.1	0.2	0.2	0.2	0.78	0.1	0.1	0.1	0.1	0.1	MIC50 [1]: 0.39 µg/mL; MIC90 [1]: 6.25 µg/mL; MICrange [4, 21]: 0.025 to 25 µg/mL; MIC90 [4, 22]: 12.5 µg/mL; MIC [17]: 0.1 µg/mL; MIC [18]: 0.1 µg/mL; MIC [19]: 0.39 µg/mL
CN1Cc2csc3c(C(=O)O)c(=O)c4cc(F)c(N5CCN(C)C(CF)C5)c1c4n23 (stereo not drawn) [Compound (K), 9,1-(methylimino)methano-7-fluoro-8-(3-fluoromethyl-4-methyl-1-piperazinyl)-5-oxo-5H-thiazolo[3,2-a]quinoline-4-carboxylic acid hydrochloride]	0.2 to 6.25	1.56	0.2 to 12.5	12.5	0.025 to 1.56	0.05	1.56	0.05	0.1	0.013	0.05	0.05	0.39	0.1	0.78	0.05	0.2	0.1	0.05	0.05	MIC50 [1]: 0.39 µg/mL; MIC90 [1]: 6.25 µg/mL; MIC90 [4]: 0.78 µg/mL; MIC [4, 21]: 0.05 to 1.56 µg/mL; MIC [17]: 0.2 µg/mL; MIC [18]: 0.05 µg/mL; MIC [19]: 0.05 µg/mL
CN1Cc2csc3c(C(=O)O)c(=O)c4cc(F)c(N5CCC(=O)CC5)c1c4n23 [Compound (G), 9,1-(Methylimino)methano-7-fluoro-8-(4-oxopiperidino)-5-oxo-5H-thiazolo[3,2-a]quinoline-4-carboxylic acid]	0.025 to 1.56 (≈ 0.0623 to 3.89 µM)	0.39 (≈ 0.972 µM)	0.025 to 3.13 (≈ 0.0623 to 7.8 µM)	3.13 (≈ 7.8 µM)	0.006 to 0.39 (≈ 0.0149 to 0.972 µM)	≤ 0.006	0.2 (≈ 0.498 µM)	0.013 (≈ 0.0324 µM)	0.013 (≈ 0.0324 µM)	≤ 0.006	0.013 (≈ 0.0324 µM)	≤ 0.006	0.2 (≈ 0.498 µM)	0.025 (≈ 0.0623 µM)	0.39 (≈ 0.972 µM)	≤ 0.006	0.2 (≈ 0.498 µM)	0.025 (≈ 0.0623 µM)	≤ 0.006	0.013 (≈ 0.0324 µM)	MIC50 ([1]; 25 clinical strains E. faecalis, 50% of strains, read-out: MIC50): 0.05 µg/mL (≈ 0.125 µM); MIC90 ([1]; 25 clinical strains E. faecalis, 90% of strains, read-out: MIC90): 1.56 µg/mL (≈ 3.89 µM); MIC [4, 21]: 0.006 to 0.2 µg/mL (≈ 0.0149 to 0.498 µM); MIC90 [4, 22]: 0.2 µg/mL (≈ 0.498 µM); MIC [17]: 0.1 µg/mL (≈ 0.249 µM); MIC [18]: 0.025 µg/mL (≈ 0.0623 µM); MIC [19]: 0.013 µg/mL (≈ 0.0324 µM)
